Assay results reported in patent US12569566B2, “Compositions containing, methods and uses of antibody-TLR agonist conjugates” (Ambrx, Inc., priority 2019, dated 2026).
Read-outs that look alike come from different tables or passages of the source.

Biological target: T1, hTLR7 (Homo sapiens, UniProt Q9NYK1)
T1 construct: host or cells: HEK-Blue hTLR7 (HEK293-derived reporter cell line)
T1 sequence (Q9NYK1 27-1049): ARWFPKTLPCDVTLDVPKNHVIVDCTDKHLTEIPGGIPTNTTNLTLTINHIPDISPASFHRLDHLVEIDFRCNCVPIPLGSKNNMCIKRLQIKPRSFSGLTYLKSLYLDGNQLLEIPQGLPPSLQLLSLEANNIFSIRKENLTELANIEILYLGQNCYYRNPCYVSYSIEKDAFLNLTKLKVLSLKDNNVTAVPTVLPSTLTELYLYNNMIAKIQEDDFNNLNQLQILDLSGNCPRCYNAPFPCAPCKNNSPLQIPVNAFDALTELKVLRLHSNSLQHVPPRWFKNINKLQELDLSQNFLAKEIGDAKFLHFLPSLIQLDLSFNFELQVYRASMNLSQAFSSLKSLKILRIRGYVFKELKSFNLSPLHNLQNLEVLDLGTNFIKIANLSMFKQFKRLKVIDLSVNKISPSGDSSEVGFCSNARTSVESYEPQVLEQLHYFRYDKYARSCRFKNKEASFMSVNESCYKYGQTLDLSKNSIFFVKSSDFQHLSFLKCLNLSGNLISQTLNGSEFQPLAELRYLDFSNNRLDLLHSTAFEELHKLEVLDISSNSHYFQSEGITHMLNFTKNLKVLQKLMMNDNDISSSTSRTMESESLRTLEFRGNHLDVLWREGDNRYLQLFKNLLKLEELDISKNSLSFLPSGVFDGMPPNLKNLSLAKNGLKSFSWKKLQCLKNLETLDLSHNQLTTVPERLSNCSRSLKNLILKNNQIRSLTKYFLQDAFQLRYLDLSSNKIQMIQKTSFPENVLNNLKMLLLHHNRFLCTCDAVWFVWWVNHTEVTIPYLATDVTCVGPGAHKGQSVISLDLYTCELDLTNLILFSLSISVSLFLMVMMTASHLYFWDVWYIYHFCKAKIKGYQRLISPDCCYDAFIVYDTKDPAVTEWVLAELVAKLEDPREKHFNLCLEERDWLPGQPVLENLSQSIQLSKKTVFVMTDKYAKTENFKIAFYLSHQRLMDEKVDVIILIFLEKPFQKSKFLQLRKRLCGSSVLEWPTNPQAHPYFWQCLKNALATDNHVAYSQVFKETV
Assay: HEK-Blue hTLR7 reporter assay (NF-kB-induced SEAP, Quanti-Blue, OD 655 nm)
Format: cell-based
Details: for TLR7 activity / potency stated in words: FIGS. 6-9
Protocol: HEK-Blue™ hTLR7 cells were incubated in HEK-Blue™ Detection medium and stimulated with increasing concentrations of TLR7 or TLR8 or TLR7/8 agonists. […] The EC50 was determined from dose-response curve using Prism Software.

[1] = Table 14, FIG. 8, (DL) = drug linker, read-out: TLR7 EC50
[2] = text to FIG. 5B and FIG. 8, read-out: EC50 values (TLR7)

| Compound | TLR7 activity / potency stated in words | EC50 [1] | also measured |
| --- | --- | --- | --- |
| CCOCc1nc2c(N)nc3ccccc3c2n1CCCCNC(=O)c1ccc(N)c(OC)c1 [AXC-807] |  |  | EC50 (Table 10, FIG. 5A, 24 h, read-out: TLR7 EC50): 413 nM |
| CCCCNc1nc(N)c2[nH]c(=O)n(Cc3ccc(NCCN(C)CCNC(=O)CON)nc3)c2n1 [AXC-868, N-(2-((2-(5-((6-amino-2-(butylamino)-8-oxo-7H-purin-9(8H)-yl)methyl)pyridin-2-ylamino)ethyl)(methyl)amino)ethyl)-2-(aminooxy)acetamide] |  |  | EC50 (Table 12, FIG. 6, TLR7 agonists attached to a linker, read-out: TLR Agonist Payload + Linkers EC50): > 5000 nM |
| CCCCOc1nc(N)c2[nH]c(=O)n(Cc3ccc(CN4CCC(CCNC(=O)CON)CC4)cc3)c2n1 [AXC-879, N-(2-(1-(4-((6-amino-2-butoxy-8-oxo-7H-purin-9(8H)-yl)methyl)benzyl)piperidin-4-yl)ethyl)-2-(aminooxy)acetamide] | highest potency |  |  |
| CCCCOc1nc(N)c2[nH]c(=O)n(Cc3ccc(CN4CCC(CCNC(=O)c5ccc(N)c(OC)c5)CC4)cc3)c2n1 [AXC-895, 4-amino-N-(2-(1-(4-((6-amino-2-butoxy-8-oxo-7H-purin-9(8H)-yl)methyl)benzyl)piperidin-4-yl)ethyl)-3-methoxybenzamide] | highest potency |  |  |
| CCCCOc1nc(N)c2[nH]c(=O)n(Cc3ccc(CN4CCC(C5CCN(C(=O)CON)CC5)CC4)cc3)c2n1 [AXC-901, 6-amino-9-(4-((1′-(2-(aminooxy)acetyl)-4,4′-bipiperidin-1-yl)methyl)benzyl)-2-butoxy-7H-purin-8(9H)-one] | highest potency |  |  |
| CCCCOc1nc(N)c2[nH]c(=O)n(Cc3ccc(CN4CCC(CCNC(=O)c5cccc(N)c5)CC4)cc3)c2n1 [AXC-903, 3-amino-N-(2-(1-(4-((6-amino-2-butoxy-8-oxo-7,8-dihydro-9H-purin-9-yl)methyl)benzyl)piperidin-4-yl)ethyl)benzamide] |  | 4.3 nM | EC50 [2]: < 10 nM |
| CCCCOc1nc(N)c2[nH]c(=O)n(Cc3ccc(CN4CCC(CCNC(=O)c5ccc(CCN)cc5)CC4)cc3)c2n1 [AXC-904, N-(2-(1-(4-((6-amino-2-butoxy-8-oxo-7,8-dihydro-9H-purin-9-yl)methyl)benzyl)piperidin-4-yl)ethyl)-4-(2-aminoethyl)benzamide] |  | 8.1 nM | EC50 [2]: < 10 nM |
| CCCCOc1nc(N)c2[nH]c(=O)n(Cc3ccc(CN4CCC(CCNC(=O)c5ccc(N)cc5)CC4)cc3)c2n1 [AXC-905, 4-amino-N-(2-(1-(4-((6-amino-2-butoxy-8-oxo-7,8-dihydro-9H-purin-9-yl)methyl)benzyl)piperidin-4-yl)ethyl)benzamide] |  | 2.6 nM |  |
